Assay results: patent publication US10767149B2, “Microfluidic device for three dimensional and compartmentalized coculture of neuronal and muscle cells, with functional force readout” (priority 2016, dated 2020)
“Also recorded” adds a separate entry of the source.

Tests used:
Format in all cases: cell-based, mouse
[1] = system: motor neurons in neurospheres innervating C2C12-derived muscle bundle; assay: Glutamate stimulation of neurospheres in three-dimensional microfluidic neuron-muscle coculture
Method: . After reassembling an open-reservoir variant of the microfluidic device onto the muscle strip, the medium contained in all channels was flushed with a collagen-Matrigel mix. Neurospheres ˜300 to 400 μm in diameter were manually selected, resuspended with the same collagen-Matrigel mixture as above, and individually pipetted into the leftmost channel (FIG. 9d and FIG. 8) before the devices were placed in the incubator for matrix gelation, after which medium was supplied to both open reservoirs. The diameter of the neurospheres being greater than the inter-post distance ensured their restriction to the assign channel, resulting in a physical separation of ˜1 mm between the neurons and the muscles.
The first muscle contraction, indicative of the presence of functional NMJs, was recorded 80 s after glutamate administration and the twitching frequency rose during the subsequent 120 s to reach a steady value of ˜1.25 Hz (FIG. 10a). The delay in contraction and increase of the twitching frequency is likely due to the diffusion of the glutamate to the motor neurons embedded in the ECM since this lag is absent in adherent 2D cultures (T. Wada, M. Honda, I. Minami, N. Tooi, Y. Amagai, N. Nakatsuji, K. Aiba, PLoS One 2009, 4, DOI 10.1371/journal.pone.0006722) or three-dimensional constructs in suspension (Y. Morimoto, M. Kato-Negishi, H. Onoe, S. Takeuchi, Biomaterials 2013, 34, 9413).
All three-dimensional cell cultures in the microfluidic devices were carried out in a collagen:Matrigel hydrogel in a 4:1 ratio. Rat tail type I collagen (Corning) was mixed on ice with 10×PBS with phenol red (serving as pH indicator), 0.5 N NaOH and water for cell culture in order to yield a collagen concentration of 2 mg·ml^−1 at a pH of 7.4. Matrigel without growth factors (BD science) was thoroughly mixed to the collagen at 20% of the final gel mixture volume. The gel was then used within a few minutes following its preparation in order to avoid pre-polymerization.
C2C12 were trypsinized, counted and centrifuged for 5 min at 200 rcf. […]

[2] = system: NMJs between ChR2^H134R-HBG3-MN and C2C12-derived myotubes
[3] = system: NMJs between ChR2^H134R-HBG3-MN neurospheres and C2C12-derived muscle bundle

Row | Molecule | steady muscle twitching frequency ([1]; 400 μM in medium) [Hz] | time to first muscle contraction after administration ([1]; 400 μM in medium, leftmost channel) [s] | time over which twitching frequency rose to steady value ([1]; 400 μM, after first contraction) [s] | contractility of the myocytes after application (spontaneous twitches) [2] | effect on light-induced muscle contraction [2] | myocytes showing inhibition of light-induced muscle contraction [2] | effect on light-driven muscle contraction (force F) [3]
1 | N[C@@H](CCC(=O)O)C(=O)O [Glutamate] | ~1.25 | 80 | 120 | – | – | – | –
2 | α-bungarotoxin | – | – | – | still contractile; also recorded: did not alter the contractility of the myocytes | inhibited | 17/17 | inhibited the contractions; also recorded: inhibited muscle contraction
